Test results as given in patent US8916502B2, “Agent for improving lawn grass qualities” (Cosmo Oil Co., Ltd., priority 2008, dated 2014).

Tests used:
[1] = test system: Zoysia tenuifolia; assay: Foliage treatment of Zoysia tenuifolia sod in pots: grass height and dry weight of shoots and stems; format: in vivo; conditions: foliage treatment 150 L/10 a; for Grass height: 26 days after treatment; for Dry weight of stems: harvested 4 months after treatment
Description: A commercially available Zoysia tenuifolia sod was cut to a size of 10×10 cm. Uniform volcanic ash soil (andosol) was introduced into a vessel (1/44,444×10 a) in a sufficient amount per pot, and a chemical fertilizer (N—P—K=8-8-8) was applied thereon in an amount, in terms of nitrogen, of 2.6 kg-N/10 a. The cut Zoysia tenuifolia sod was transplanted into the pot. […] The grass height was measured 26 days after the treatment, and thereby the dwarfing effect was investigated.

[2] = test system: bentgrass; assay: Foliage treatment of bentgrass sod in pots: leaf count and L*a*b* colour; format: in vivo; conditions: 30 days after treatment, 5-aminolevulinic acid hydrochloride 200 mg/10 a and/or prohexadione calcium salt 12.5 g/10 a; for Color system L* / Color system b* / Color system a*: colorimeter; for Color system a*: more negative = greener; for Plant count of lawn grass: foliage treatment 150 L/10 a
Description: A commercially available bentgrass sod was cut into a circular form having a diameter of 10 cm. Uniform volcanic ash soil (andosol) was introduced into a vessel (1/17,500×10 a) in a sufficient amount per pot, and a liquid fertilizer (Hyponica) was applied thereon in an amount, in terms of nitrogen, of 3 kg-N/10 a. The cut bentgrass sod was transplanted into the pot.

[3] = 5-aminolevulinic acid hydrochloride 600 mg/10 a and/or flurprimidol 84 g/10 a
[4] = 5-aminolevulinic acid hydrochloride 600 mg/10 a and/or paclobutrazol 36 g/10 a
[5] = 5-aminolevulinic acid hydrochloride 600 mg/10 a and/or prohexadione calcium salt 20 g/10 a
[6] = 5-aminolevulinic acid hydrochloride 600 mg/10 a and/or trinexapac-ethyl 20 g/10 a

Compound	Dry weight of shoots [1, 3] [g]	Dry weight of shoots [1, 4] [g]	Dry weight of shoots [1, 5] [g]	Dry weight of shoots [1, 6] [g]	Grass height [1, 3] [cm]	Grass height [1, 4] [cm]	Grass height [1, 5] [cm]	Grass height [1, 6] [cm]	Dry weight of stems [1, 3] [g]	Dry weight of stems [1, 4] [g]	Dry weight of stems [1, 5] [g]	Dry weight of stems [1, 6] [g]	Color system L* [2]	Color system b* [2]	Color system a* [2]	Plant count of lawn grass [2] [plants/9 cm^2]
Cl.NCC(=O)CCC(=O)O [5-aminolevulinic acid hydrochloride]	0.90	0.90	0.90	0.90	4.2	4.2	4.2	4.2	12.0	12.0	12.0	12.0	34.0	17.6	−8.8	54.2
CC(C)(C)[C@@H](O)[C@@H](Cc1ccc(Cl)cc1)n1cncn1 (racemic) [paclobutrazol, (2RS,3RS)-1-(4-chlorophenyl)-4,4-dimethyl-2-(1H-1,2,4-triazol-1-yl)pentan-3-ol]	–	0.81	–	–	–	3.5	–	–	–	14.8	–	–	–	–	–	–
CCOC(=O)C1CC(=O)C(=C(O)C2CC2)C(=O)C1 (stereo not drawn) [Trinexapac-ethyl, ethyl=4-cyclopropyl-α-hydroxymethylene)-3,5-dioxocyclohexane carboxylate]	–	–	–	0.44	–	–	–	3.5	–	–	–	12.8	–	–	–	–
CCC(=O)C1=C([O-])CC(C(=O)[O-])CC1=O.[Ca+2] (centres unmarked) [Prohexadione calcium salt, calcium 3-oxido-5-oxo-4-propionyl-3-cyclohexene carboxylate]	–	–	0.72	–	–	–	3.5	–	–	–	11.3	–	33.2	17.0	−8.9	65.5
